{"source": "paper PMC12748766", "about": "“Structural basis for human chondroitin sulfate chain polymerization” (Nature Communications, 2025)", "molecules": {"B1": {"name": "Chondroitin Polymerization Factor-2 (CHPF2), secreted N-terminally truncated construct aa57-aa772 (domain or fragment, human, UniProt Q9P2E5 57-772, looked up)", "chain": "SRARLDQSDEDFKPRIVPYYRDPNKPYKKVLRTRYIQTELGSRERLLVAVLTSRATLSTLAVAVNRTVAHHFPRLLYFTGQRGARAPAGMQVVSHGDERPAWLMSETLRHLHTHFGADYDWFFIMQDDTYVQAPRLAALAGHLSINQDLYLGRAEEFIGAGEQARYCHGGFGYLLSRSLLLRLRPHLDGCRGDILSARPDEWLGRCLIDSLGVGCVSQHQGQQYRSFELAKNRDPEKEGSSAFLSAFAVHPVSEGTLMYRLHKRFSALELERAYSEIEQLQAQIRNLTVLTPEGEAGLSWPVGLPAPFTPHSRFEVLGWDYFTEQHTFSCADGAPKCPLQGASRADVGDALETALEQLNRRYQPRLRFQKQRLLNGYRRFDPARGMEYTLDLLLECVTQRGHRRALARRVSLLRPLSRVEILPMPYVTEATRVQLVLPLLVAEAAAAPAFLEAFAANVLEPREHALLTLLLVYGPREGGRGAPDPFLGVKAAAAELERRYPGTRLAWLAVRAEAPSQVRLMDVVSKKHPVDTLFFLTTVWTRPGPEVLNRCRMNAISGWQAFFPVHFQEFNPALSPQRSPPGPPGAGPDPPSPPGADPSRGAPIGGRFDRQASAEGCFYNADYLAARARLAGELAGQEEEEALEGLEVMDVFLRFSGLHLFRAVEPGLVQKFSLRDCSPRLSEELYHRCRLSNLEGLGGRAQLAMALFEQEQANST", "notes": "CHPF2, human, UniProt Q9P2E5, residues 57-772 (membrane-spanning helix removed); Construct in pHR-CMV-TetO2 with an N-terminal chicken RPTP sigma signal peptide, SUMO, 6x His and a 3C site; a second 3C site stands before the C-terminal twin streptavidin tag; also called CSGlcA-T; source: Freestyle 293-F cells, co-transfected, secreted; purified from the supernatant (HisTrap, 3C protease, second …)"}}, "key": {"CHSY3-CHPF complex [1]": {"target": "T1, CHSY3-CHPF complex (Homo sapiens, UniProt Q70JA7)", "T1 construct": "secreted luminal part of both chains (TM helix removed), HEK Freestyle 293-F; N-terminal RPTP sigma signal, SUMO, His6 cut with 3C; C-terminal Avi (CHSY3), 3C site and twin-Strep (CHPF); heterodimer, expected 165 kDa; with Chondroitin sulfate synthase 2", "T1 sequence (Q70JA7 157-882)": "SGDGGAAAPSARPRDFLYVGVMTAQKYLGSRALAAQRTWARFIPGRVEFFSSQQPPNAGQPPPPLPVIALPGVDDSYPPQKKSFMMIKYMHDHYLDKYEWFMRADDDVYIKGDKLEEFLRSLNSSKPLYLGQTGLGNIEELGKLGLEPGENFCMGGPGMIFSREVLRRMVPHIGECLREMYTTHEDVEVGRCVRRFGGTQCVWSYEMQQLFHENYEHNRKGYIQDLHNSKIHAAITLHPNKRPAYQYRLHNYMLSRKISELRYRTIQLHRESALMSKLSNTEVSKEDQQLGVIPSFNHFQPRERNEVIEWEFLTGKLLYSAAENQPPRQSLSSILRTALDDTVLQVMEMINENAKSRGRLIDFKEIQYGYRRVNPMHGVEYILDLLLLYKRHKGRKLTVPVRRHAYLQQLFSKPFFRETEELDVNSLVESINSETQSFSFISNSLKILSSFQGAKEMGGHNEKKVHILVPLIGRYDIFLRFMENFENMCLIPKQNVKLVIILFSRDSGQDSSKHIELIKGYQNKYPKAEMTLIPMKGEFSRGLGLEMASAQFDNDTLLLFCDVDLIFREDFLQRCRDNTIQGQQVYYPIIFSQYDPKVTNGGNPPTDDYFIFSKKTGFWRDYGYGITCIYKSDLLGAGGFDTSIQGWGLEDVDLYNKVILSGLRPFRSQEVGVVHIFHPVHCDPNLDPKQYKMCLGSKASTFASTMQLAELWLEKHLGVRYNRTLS", "T1 sequence (Q8IZ52 81-775 partner)": "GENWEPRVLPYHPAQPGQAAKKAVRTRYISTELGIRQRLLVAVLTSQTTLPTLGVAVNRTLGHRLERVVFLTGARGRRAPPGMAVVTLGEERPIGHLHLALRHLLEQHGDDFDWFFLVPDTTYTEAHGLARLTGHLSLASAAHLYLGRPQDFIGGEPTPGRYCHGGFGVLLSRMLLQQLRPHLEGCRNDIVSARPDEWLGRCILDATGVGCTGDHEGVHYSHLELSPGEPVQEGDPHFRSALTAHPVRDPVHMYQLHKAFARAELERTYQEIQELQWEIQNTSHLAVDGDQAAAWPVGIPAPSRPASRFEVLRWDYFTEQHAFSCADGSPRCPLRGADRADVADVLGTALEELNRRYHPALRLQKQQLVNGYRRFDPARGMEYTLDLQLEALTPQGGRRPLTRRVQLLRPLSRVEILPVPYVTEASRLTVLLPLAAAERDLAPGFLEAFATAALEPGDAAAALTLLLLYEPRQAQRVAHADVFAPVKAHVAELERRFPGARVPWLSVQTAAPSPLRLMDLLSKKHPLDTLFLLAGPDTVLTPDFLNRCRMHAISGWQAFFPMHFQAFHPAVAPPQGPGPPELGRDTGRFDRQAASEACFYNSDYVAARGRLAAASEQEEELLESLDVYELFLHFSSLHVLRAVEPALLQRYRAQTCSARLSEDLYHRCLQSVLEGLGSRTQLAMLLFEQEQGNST", "experiment": "cryo-EM structure, […] A", "assay_type": "binding", "conditions": "10 mM UDP, Mn2+, pH 6.5; bound in N-terminal GT31 (GlcA-T) active site of CHSY3"}, "CHSY3-CHPF2 complex": {"target": "T2, CHSY3-CHPF2 complex (Homo sapiens, UniProt Q70JA7)", "T2 construct": "secreted luminal part of both chains (TM helix removed), HEK Freestyle 293-F; N-terminal SUMO, His6 cut with 3C; C-terminal Avi (CHSY3), 3C site and twin-Strep (CHPF2); heterodimer, expected 167 kDa; with Chondroitin sulfate glucuronyltransferase", "T2 sequence (Q70JA7 157-882)": "T1 sequence (Q70JA7 157-882)", "T2 sequence (Q9P2E5 57-772 partner)": "B1 chain", "experiment": "FACE gel glycosylation assay", "assay_type": "biochemical", "conditions": "acceptor TAMRA-labelled Penta-CSF1 glycopeptide, Mn2+ and Mg2+, pH 6.5, 30 C"}, "CHSY3-CHPF complex [2]": {"target": "T1, CHSY3-CHPF complex", "experiment": "FACE gel glycosylation assay", "assay_type": "biochemical", "conditions": "Mn2+ and Mg2+, pH 6.5, 30 C"}, "CHSY1-CHPF2 complex": {"target": "T3, CHSY1-CHPF2 complex (Homo sapiens, UniProt Q86X52)", "T3 construct": "secreted luminal part of both chains (TM helix removed), HEK Freestyle 293-F; N-terminal SUMO, His6 cut with 3C; C-terminal Avi (CHSY1), 3C site and twin-Strep (CHPF2); heterodimer, expected 169 kDa; with Chondroitin sulfate glucuronyltransferase", "T3 sequence (Q86X52 68-802)": "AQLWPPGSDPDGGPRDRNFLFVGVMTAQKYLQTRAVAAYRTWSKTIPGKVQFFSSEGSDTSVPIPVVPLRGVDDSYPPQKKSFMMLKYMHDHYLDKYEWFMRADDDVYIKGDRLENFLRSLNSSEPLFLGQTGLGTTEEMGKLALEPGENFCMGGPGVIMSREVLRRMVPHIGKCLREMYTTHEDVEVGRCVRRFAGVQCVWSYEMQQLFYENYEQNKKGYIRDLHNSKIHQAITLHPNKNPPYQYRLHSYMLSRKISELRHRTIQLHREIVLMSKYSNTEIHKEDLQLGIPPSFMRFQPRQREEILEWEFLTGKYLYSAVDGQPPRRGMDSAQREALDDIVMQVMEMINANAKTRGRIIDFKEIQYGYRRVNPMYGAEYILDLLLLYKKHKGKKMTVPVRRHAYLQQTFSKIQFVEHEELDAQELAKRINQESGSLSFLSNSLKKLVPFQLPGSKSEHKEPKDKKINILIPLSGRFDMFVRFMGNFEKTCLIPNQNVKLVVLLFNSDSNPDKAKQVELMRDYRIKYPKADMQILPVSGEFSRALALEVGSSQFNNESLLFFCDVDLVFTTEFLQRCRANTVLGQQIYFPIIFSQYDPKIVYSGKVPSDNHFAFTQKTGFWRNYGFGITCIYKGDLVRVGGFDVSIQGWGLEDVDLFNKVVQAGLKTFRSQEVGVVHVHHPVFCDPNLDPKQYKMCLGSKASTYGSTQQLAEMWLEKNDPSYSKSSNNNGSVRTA", "T3 sequence (Q9P2E5 57-772 partner)": "B1 chain", "experiment": "FACE gel glycosylation assay", "assay_type": "biochemical", "conditions": "acceptor TAMRA-labelled Penta-CSF1 glycopeptide, Mn2+ and Mg2+, pH 6.5, 30 C"}, "CHSY1-CHPF complex": {"target": "T4, CHSY1-CHPF complex (Homo sapiens, UniProt Q86X52)", "T4 construct": "secreted luminal part of both chains (TM helix removed), HEK Freestyle 293-F; N-terminal SUMO, His6 cut with 3C; C-terminal Avi (CHSY1), 3C site and twin-Strep (CHPF); heterodimer, expected 167 kDa; with Chondroitin sulfate synthase 2", "T4 sequence (Q86X52 68-802)": "T3 sequence (Q86X52 68-802)", "T4 sequence (Q8IZ52 81-775 partner)": "T1 sequence (Q8IZ52 81-775 partner)", "experiment": "FACE gel glycosylation assay", "assay_type": "biochemical", "conditions": "acceptor TAMRA-labelled Penta-CSF1 glycopeptide, Mn2+ and Mg2+, pH 6.5, 30 C"}, "[3]": {"target": "T5, Chondroitin Sulfate Synthase-3 (CHSY3), secreted N-terminally truncated construct aa157-aa882 (human, UniProt Q70JA7 157-882)", "T5 construct": "CHSY3, human, UniProt Q70JA7, residues 157-882 (membrane-spanning helix removed); Construct in pHR-CMV-TetO2 with an N-terminal chicken RPTP sigma signal peptide, SUMO, 6x His and a 3C site; no cleavage site before the C-terminal Avi tag; source: Freestyle 293-F cells, co-transfected, secreted; purified from the supernatant (HisTrap, 3C protease, second HisTrap); not shown: SUMO, N-terminal, …", "T5 sequence (looked up)": "T1 sequence (Q70JA7 157-882)", "experiment": "mass photometry; Refeyn OneMP; purified complexes diluted in 20 mM MES pH 6.5, 150 mM NaCl to around 25 nM", "conditions": "both partners purified"}, "[4]": {"target": "T6, Chondroitin Sulfate Synthase-1 (CHSY1), secreted N-terminally truncated construct aa68-aa802 (human, UniProt Q86X52 68-802)", "T6 construct": "CHSY1, human, UniProt Q86X52, residues 68-802 (membrane-spanning helix removed); Construct in pHR-CMV-TetO2 with an N-terminal chicken RPTP sigma signal peptide, SUMO, 6x His and a 3C site; no cleavage site before the C-terminal Avi tag; source: Freestyle 293-F cells, co-transfected, secreted; purified from the supernatant (HisTrap, 3C protease, second HisTrap); not shown: SUMO, N-terminal, …", "T6 sequence (looked up)": "T3 sequence (Q86X52 68-802)", "experiment": "mass photometry; Refeyn OneMP; purified complexes diluted in 20 mM MES pH 6.5, 150 mM NaCl to around 25 nM", "conditions": "both partners purified"}}, "data": [{"molecule": "O=c1ccn([C@@H]2O[C@H](COP(=O)(O)OP(=O)(O)O)[C@@H](O)[C@H]2O)c(=O)[nH]1", "note": "[UDP]", "values": [{"measurement": "cryo-EM structure, 3.0 A", "setting": "CHSY3-CHPF complex [1]", "result": "We identified one UDP molecule bound in the CHSY3 GlcA-T active site."}]}, {"molecule": "CC(=O)N[C@H]1[C@@H](OP(=O)(O)OP(=O)(O)OC[C@H]2O[C@@H](n3ccc(=O)[nH]c3=O)[C@H](O)[C@@H]2O)O[C@H](CO)[C@H](O)[C@@H]1O", "note": "[UDP-GalNAc]", "values": [{"measurement": "FACE gel glycosylation assay", "setting": "CHSY3-CHPF2 complex; co-donor UDP-GlcA", "result": "All four purified CS polymerase complexes were able to elongate the CS chain"}, {"measurement": "FACE gel glycosylation assay", "setting": "CHSY3-CHPF complex [2]; acceptor TAMRA-labelled Hexa-CSF1 glycopeptide, co-donor UDP-GlcA, C-terminal GT7 site of CHSY3", "result": "wild-type CHSY3-CHPF complex efficiently elongated the Penta-CSF1 and Hexa-CSF1 substrates into high molecular weight chains"}, {"measurement": "FACE gel glycosylation assay", "setting": "CHSY1-CHPF2 complex; co-donor UDP-GlcA", "result": "All four purified CS polymerase complexes were able to elongate the CS chain"}, {"measurement": "FACE gel glycosylation assay", "setting": "CHSY1-CHPF complex; co-donor UDP-GlcA", "result": "All four purified CS polymerase complexes were able to elongate the CS chain"}]}, {"molecule": "O=C(O)[C@H]1O[C@H](OP(=O)(O)OP(=O)(O)OC[C@H]2O[C@@H](n3ccc(=O)[nH]c3=O)[C@H](O)[C@@H]2O)[C@H](O)[C@@H](O)[C@@H]1O", "note": "[UDP-GlcA]", "values": [{"measurement": "FACE gel glycosylation assay", "setting": "CHSY3-CHPF2 complex; co-donor UDP-GalNAc", "result": "All four purified CS polymerase complexes were able to elongate the CS chain"}, {"measurement": "FACE gel glycosylation assay", "setting": "CHSY3-CHPF complex [2]; acceptor TAMRA-labelled Penta-CSF1 glycopeptide, co-donor UDP-GalNAc, N-terminal GT31 site of CHSY3", "result": "wild-type CHSY3-CHPF complex efficiently elongated the Penta-CSF1 and Hexa-CSF1 substrates into high molecular weight chains"}, {"measurement": "FACE gel glycosylation assay", "setting": "CHSY1-CHPF2 complex; co-donor UDP-GalNAc", "result": "All four purified CS polymerase complexes were able to elongate the CS chain"}, {"measurement": "FACE gel glycosylation assay", "setting": "CHSY1-CHPF complex; co-donor UDP-GalNAc", "result": "All four purified CS polymerase complexes were able to elongate the CS chain"}]}, {"molecule": "B1", "values": [{"measurement": "binding result", "setting": "[3]", "result": "binds"}, {"measurement": "binding result", "setting": "[4]", "result": "binds"}]}]}
